From patent US10682371B2, “Small molecule conjugates specifically activated in tumor microenvironment for targeting and use thereof” (priority 2014, dated 2020)
Entries after “also recorded” stand apart in the source; their conditions may differ.

Tests used:
asparagine endopeptidase = target: T1, asparagine endopeptidase (Homo sapiens, UniProt Q99538)
T1 sequence (Q99538 26-323 limits assumed): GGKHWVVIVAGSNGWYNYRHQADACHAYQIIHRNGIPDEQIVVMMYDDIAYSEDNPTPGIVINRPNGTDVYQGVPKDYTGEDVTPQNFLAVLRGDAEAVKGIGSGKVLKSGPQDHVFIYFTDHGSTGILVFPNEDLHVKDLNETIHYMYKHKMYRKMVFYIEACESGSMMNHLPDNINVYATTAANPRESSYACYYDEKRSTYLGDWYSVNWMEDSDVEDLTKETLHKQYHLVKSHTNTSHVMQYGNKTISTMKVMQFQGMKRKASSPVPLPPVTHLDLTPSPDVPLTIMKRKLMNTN
Experimental: Reduction of reactant and increase of product were detected by HPLC, thereby comparing the activation efficiency of these compounds.
When R1 is 2-(2-Methoxyethoxy)Acetyl, and R3 is Ala, activation study and efficacy study were carried out by using compounds having different cleavable linker. The study methods are identical to those in Examples 10, 11 and 12. The in vitro activation efficiency was tested by asparagine endopeptidase and the tumor inhibition rate was tested by using human breast cancer MDA-MB231 model.

Mice = assay: Toxicity of Legutaxel injected at tail vein weekly for 3 times, observed over 21 days; assay type: in vivo
Experimental: Mice were injected with Legutaxel at tail vein weekly for 3 times. […] Therefore, Legutaxel's dose could at least reach 160 mg/kg/day during treatment.

[1] = tested on: tumor-derived immunosuppressive T cells (T reg: CD4+, CD25+, Foxp3+); CD8 T cells; assay: Immunological stimulation test in mice receiving tumor treatment (T reg, CD8 T cells); assay type: in vivo
Text: We further studied the immunological stimulation property of Legutaxel. […] On the contrary, the index for tumor-derived immunosuppressive T cells in treatment group by Legutaxel decreased due to targeted chemotherapy (see panels in FIGS. 3A and 3B).

MDA-MB231 tumor tissue = assay: Activation efficiency by MDA-MB231 tumor tissue (HPLC); assay type: biochemical
Experimental: At 37 °C, sample compounds were added into 100 μg acidized tumor tissue homogenates in a concentration of 1 mg/ml.
In the experiments, at 37 °C, compounds were added into proteases in 100 μg acidized tumor tissue homogenates in a concentration of 1 mg/ml. […] Meanwhile certain compounds produced in the screening were compared and their activation efficiency in same tissue was analyzed.

[2] = tested on: Human prostate cancer PC-3 cells; assay: Tumor treatment in nude mice, PC-3 model (Example 51); assay type: in vivo
Experimental: 1) Human prostate cancer PC-3 cells were purchased from American type culture collection (ATCC) and identified according the specification provided by ATCC. Cells were cultivated in DMEM culture solution containing 10% fetal bovine serum at 37° C. and 5% CO2. The cells were passaged for every three days and cells within the 15th passage were used.
2) Production of tumor. 5×10^6PC-3 cells were subcutaneously injected to the back of the nude mice. Mice were randomly grouped after the tumor reached at least 100 mm^3. Then treatment began and the day on which the treatment began was day 1.
According to the clinical application of D1, D2, D3 and D4, drugs were intravenously injected (IV). […]. The control group was administered by physiological saline. Drugs were administered once weekly for four weeks.

[3] = Maximum tolerated dose (MTD) / acute toxicity by single intravenous injection; details: female, BALB/C, mouse, in vivo, iv
[4] = Table 48, nude mice, PC-3, IV once weekly for four weeks, D1-D4 25 mg/kg, Docetaxel […], Day 10
[5] = Table 48, nude mice, PC-3, IV once weekly for four weeks, D1-D4 25 mg/kg, Docetaxel […], Day 24

Question: For “4-N—(N—(N—(N-(6-maleimido caproyl)-L-alanyl)-L-alanyl)-L-asparaginyl)-amino benzyl alcohol-MMAE-carbamate [Compound S6]”, which “Activation by asparagine endopeptidase, in words” value (asparagine endopeptidase) is on record?
Answer: The value was “cannot be activated; also recorded: not activated”.

Question: And the Cleaving efficiency (asparagine endopeptidase; different cleavable linkers of MMAE and Doxorubicin, in vitro activation by asparagine endopeptidase)?
Answer: Its Cleaving efficiency is 25.6%.

Question: Which “Dose that can be reached during treatment” value (Mice; tail vein weekly for 3 times) does the source give for `COCCOCC(=O)N[C@H](C)C(=O)N[C@H](C)C(=O)N[C@H](CC(N)=O)C(=O)Nc1ccc(COC(=O)OC(C(=O)OC2C[C@@]3(O)C(OC(=O)c4ccccc4)[C@@H]4C5(OC(C)=O)COC5C[C@H](O)[C@@]4(C)C(=O)[C@H](OC(C)=O)C(=C2C)C3(C)C)[C@@H](NC(=O)c2ccccc2)c2ccccc2)cc1` (stereo in doubt) [S1′, 2-(2-methoxyethoxy) acetylamino-L-Ala-L-Ala-L-Asn-p-amino-benzyl-paclitaxel] here?
Answer: Its value is ≥ 160 mg/kg/day.

Question: And the “Death in toxicity experiments” value (Mice; tail vein weekly for 3 times, 140, 150 and 160 mg/kg/day, observed over 21 days)?
Answer: The value was “no death were observed”.

Question: And the “Toxic CD8 T cells permeated from the tumor tissue” value ([1]; lung cancer treatment model)?
Answer: The value was “more toxic CD8 T cells”.

Question: What about the “Index for tumor-derived immunosuppressive T cells (T reg: CD4+, CD25+, Foxp3+)” value ([1]; mice receiving tumor treatment) of the same compound?
Answer: Its value is “decreased”.

Question: Which “activation efficiency (%)” value (MDA-MB231 tumor tissue; Table 35, water-soluble Docetaxel series and controls) does the source give for `COCCOCC(=O)NCCCC[C@H](NC(=O)COCCOC)C(=O)N[C@H](C)C(=O)N[C@H](C)C(=O)N[C@H](CC(N)=O)C(=O)Nc1ccc(COC(=O)OC(C(=O)OC2C[C@@]3(O)[C@@H](OC(=O)c4ccccc4)[C@H]4[C@](C)(C(=O)[C@H](O)C(=C2C)C3(C)C)[C@@H](O)CC2OC[C@]24OC(C)=O)[C@@H](NC(=O)OC(C)(C)C)c2ccccc2)cc1` (stereo partly drawn) [Compound B1] here?
Answer: Its value is 93.4%.

Question: What does the source list for `COCCOCC(=O)N[C@H](C)C(=O)N[C@H](C)C(=O)N[C@H](CC(N)=O)C(=O)Nc1ccc(COC(=O)OC(C(=O)OC2C[C@@]3(O)[C@@H](OC(=O)c4ccccc4)[C@H]4[C@](C)(C(=O)[C@H](O)C(=C2C)C3(C)C)[C@@H](O)CC2OC[C@]24OC(C)=O)[C@@H](NC(=O)OC(C)(C)C)c2ccccc2)cc1` (stereo partly drawn) [Compound D1, 2-(2-methoxyethoxy) acetyl-L-Ala-L-Ala-L-Asn-4-amino benzyl-Docetaxel]?
Answer: activation efficiency (%) (MDA-MB231 tumor tissue; Table 46, Docetaxel D series and controls): 91.5%; Size of tumor (mm^3) Day 10 [2, 4]: 86.45 ± 26.42 mm^3; inhibitory rate on tumor Day 10 [2, 4]: 75.0; Size of tumor (mm^3) Day 24 [2, 5]: 143.34 ± 44.42 mm^3; inhibitory rate on tumor Day 24 [2, 5]: 80.5; Inhibition on tumor growth, in words ([2]; compared with Docetaxel group and control group): greatly improved

Question: With `COCCOCC(=O)N[C@H](C)C(=O)N[C@H](C)C(=O)N[C@H](CC(N)=O)C(=O)Nc1ccc(COC(=O)N2[C@@H]3CN4C5=C(C(=O)C(N)=C(C)C5=O)[C@H](COC(N)=O)[C@]4(OC)[C@@H]32)cc1` [Compound E1, 2-(2-methoxyethoxy) acetyl-L-Ala-L-Ala-L-Asn-4-amino benzyl mitomycin] as the compound, how does the MTD at 17 days [3] read?
Answer: The MTD at 17 days was ~90 mg/kg.

Question: With `COCCOCCOCCOCCOCCOCC(=O)N[C@H](C)C(=O)N[C@H](C)C(=O)N[C@H](CC(N)=O)C(=O)Nc1ccc(COC(=O)N2[C@H]3[C@@H]2CN2C4=C(C(=O)C(N)=C(C)C4=O)[C@H](COC(N)=O)[C@]32OC)cc1` [Compound E2] as the compound, how does the MTD at 17 days [3] read?
Answer: Its MTD at 17 days is ~90 mg/kg.
